Values of other authors in patent publication US10010703B2, “Drug device configured for wireless communication” (POP TEST ABUSE DETERRENT TECHNOLOGY LLC, priority 2014, dated 2018).

How the values were obtained:
progesterone receptor = target: T1, progesterone receptor (Homo sapiens, UniProt P06401)
T1 sequence (P06401 1-933): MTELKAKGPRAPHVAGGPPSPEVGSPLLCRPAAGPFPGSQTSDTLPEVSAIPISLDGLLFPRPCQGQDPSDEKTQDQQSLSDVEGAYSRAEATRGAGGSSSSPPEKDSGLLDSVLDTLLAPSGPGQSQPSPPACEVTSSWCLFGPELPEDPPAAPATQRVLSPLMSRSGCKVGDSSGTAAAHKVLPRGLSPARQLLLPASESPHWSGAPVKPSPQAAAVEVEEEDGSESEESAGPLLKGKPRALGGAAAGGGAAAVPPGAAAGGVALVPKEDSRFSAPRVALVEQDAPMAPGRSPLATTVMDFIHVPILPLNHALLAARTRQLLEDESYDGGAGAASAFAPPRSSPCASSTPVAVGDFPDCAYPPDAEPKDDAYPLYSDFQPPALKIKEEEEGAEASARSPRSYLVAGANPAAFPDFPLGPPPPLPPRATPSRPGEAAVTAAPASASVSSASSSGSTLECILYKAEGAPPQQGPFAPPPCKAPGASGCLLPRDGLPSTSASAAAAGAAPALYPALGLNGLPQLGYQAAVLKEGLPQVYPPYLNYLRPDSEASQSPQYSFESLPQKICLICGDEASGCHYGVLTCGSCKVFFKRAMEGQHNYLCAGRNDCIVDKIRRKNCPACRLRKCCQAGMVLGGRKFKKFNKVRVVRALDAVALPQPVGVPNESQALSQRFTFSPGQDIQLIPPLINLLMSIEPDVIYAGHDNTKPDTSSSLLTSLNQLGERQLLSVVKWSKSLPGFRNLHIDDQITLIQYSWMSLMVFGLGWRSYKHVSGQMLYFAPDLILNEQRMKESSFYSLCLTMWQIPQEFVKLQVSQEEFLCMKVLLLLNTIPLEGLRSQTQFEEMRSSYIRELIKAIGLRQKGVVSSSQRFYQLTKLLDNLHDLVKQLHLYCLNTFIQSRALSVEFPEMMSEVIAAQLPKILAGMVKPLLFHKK

glucocorticoid receptor = target: T2, glucocorticoid receptor (Homo sapiens, UniProt P04150)
T2 sequence (P04150 1-777): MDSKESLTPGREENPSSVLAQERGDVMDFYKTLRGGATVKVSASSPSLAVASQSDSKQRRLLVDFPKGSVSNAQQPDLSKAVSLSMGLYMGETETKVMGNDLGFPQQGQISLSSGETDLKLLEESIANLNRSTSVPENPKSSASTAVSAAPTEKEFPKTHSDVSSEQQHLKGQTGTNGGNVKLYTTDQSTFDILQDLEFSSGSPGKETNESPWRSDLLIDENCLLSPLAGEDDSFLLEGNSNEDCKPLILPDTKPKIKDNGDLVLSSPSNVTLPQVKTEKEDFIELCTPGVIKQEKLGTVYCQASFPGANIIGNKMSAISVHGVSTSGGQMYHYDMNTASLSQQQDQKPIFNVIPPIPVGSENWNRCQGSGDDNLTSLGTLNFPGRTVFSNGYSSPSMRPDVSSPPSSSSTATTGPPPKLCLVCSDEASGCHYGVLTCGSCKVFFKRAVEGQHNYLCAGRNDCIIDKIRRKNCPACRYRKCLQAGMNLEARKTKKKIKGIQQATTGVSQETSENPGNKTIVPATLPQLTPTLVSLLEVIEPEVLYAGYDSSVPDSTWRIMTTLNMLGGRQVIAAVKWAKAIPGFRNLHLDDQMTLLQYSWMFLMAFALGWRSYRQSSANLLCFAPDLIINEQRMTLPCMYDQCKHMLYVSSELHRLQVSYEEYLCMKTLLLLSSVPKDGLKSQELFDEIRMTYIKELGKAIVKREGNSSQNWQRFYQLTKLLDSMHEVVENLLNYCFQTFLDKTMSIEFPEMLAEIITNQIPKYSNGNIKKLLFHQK

estrogen receptor = target: T3, estrogen receptor (Homo sapiens, UniProt P03372)
T3 sequence (P03372 1-595): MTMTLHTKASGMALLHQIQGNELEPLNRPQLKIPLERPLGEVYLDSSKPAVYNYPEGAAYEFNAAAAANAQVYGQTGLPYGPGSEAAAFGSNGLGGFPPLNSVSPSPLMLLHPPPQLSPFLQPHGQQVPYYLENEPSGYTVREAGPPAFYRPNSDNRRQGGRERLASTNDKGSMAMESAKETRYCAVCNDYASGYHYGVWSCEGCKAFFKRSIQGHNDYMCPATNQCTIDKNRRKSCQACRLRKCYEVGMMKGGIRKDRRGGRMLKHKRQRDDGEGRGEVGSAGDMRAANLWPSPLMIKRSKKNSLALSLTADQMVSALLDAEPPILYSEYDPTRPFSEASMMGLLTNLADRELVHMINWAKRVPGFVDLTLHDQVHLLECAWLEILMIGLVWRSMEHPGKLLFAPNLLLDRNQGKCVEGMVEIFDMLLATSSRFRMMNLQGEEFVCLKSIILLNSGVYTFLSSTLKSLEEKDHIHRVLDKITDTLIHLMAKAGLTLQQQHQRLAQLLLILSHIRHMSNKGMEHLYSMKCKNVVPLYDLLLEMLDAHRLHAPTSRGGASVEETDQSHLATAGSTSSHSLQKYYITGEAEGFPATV

[1] = phase I and phase II clinical trials

For `CC#C[C@]1(O)CC[C@H]2[C@@H]3CCC4=CC(=O)CCC4=C3[C@@H](c3ccc4c(c3)OCO4)C[C@@]21C` [ORG 34517, (11β,17β)-11-(1,3-benzodioxol-5-yl)-17-hydroxy-17-(1-propynyl) estra-4,9-dien-3-one], the “affinity for / cross-binding to progesterone receptor” value (progesterone receptor) is listed as “without significant cross-binding”, the “glucocorticoid receptor binding affinity” value (glucocorticoid receptor) is listed as “high” and the “affinity for / cross-binding to estrogen receptor” value (estrogen receptor) is listed as “without significant cross-binding”. The “significant toxicities and side effects” value [1] was “none were identified”.
